Earlier results as cited in patent US20240156825A1, “USE OF SELECTIVE VEGFR2 AND FGFR1 INHIBITORS” (Fountain Therapeutics Inc., priority 2022, published 2024).
pIC50: −log10 of the molar value.

Target: VEGFR2 (Homo sapiens, UniProt P35968)
Sequence (P35968 20-1356, species assumed): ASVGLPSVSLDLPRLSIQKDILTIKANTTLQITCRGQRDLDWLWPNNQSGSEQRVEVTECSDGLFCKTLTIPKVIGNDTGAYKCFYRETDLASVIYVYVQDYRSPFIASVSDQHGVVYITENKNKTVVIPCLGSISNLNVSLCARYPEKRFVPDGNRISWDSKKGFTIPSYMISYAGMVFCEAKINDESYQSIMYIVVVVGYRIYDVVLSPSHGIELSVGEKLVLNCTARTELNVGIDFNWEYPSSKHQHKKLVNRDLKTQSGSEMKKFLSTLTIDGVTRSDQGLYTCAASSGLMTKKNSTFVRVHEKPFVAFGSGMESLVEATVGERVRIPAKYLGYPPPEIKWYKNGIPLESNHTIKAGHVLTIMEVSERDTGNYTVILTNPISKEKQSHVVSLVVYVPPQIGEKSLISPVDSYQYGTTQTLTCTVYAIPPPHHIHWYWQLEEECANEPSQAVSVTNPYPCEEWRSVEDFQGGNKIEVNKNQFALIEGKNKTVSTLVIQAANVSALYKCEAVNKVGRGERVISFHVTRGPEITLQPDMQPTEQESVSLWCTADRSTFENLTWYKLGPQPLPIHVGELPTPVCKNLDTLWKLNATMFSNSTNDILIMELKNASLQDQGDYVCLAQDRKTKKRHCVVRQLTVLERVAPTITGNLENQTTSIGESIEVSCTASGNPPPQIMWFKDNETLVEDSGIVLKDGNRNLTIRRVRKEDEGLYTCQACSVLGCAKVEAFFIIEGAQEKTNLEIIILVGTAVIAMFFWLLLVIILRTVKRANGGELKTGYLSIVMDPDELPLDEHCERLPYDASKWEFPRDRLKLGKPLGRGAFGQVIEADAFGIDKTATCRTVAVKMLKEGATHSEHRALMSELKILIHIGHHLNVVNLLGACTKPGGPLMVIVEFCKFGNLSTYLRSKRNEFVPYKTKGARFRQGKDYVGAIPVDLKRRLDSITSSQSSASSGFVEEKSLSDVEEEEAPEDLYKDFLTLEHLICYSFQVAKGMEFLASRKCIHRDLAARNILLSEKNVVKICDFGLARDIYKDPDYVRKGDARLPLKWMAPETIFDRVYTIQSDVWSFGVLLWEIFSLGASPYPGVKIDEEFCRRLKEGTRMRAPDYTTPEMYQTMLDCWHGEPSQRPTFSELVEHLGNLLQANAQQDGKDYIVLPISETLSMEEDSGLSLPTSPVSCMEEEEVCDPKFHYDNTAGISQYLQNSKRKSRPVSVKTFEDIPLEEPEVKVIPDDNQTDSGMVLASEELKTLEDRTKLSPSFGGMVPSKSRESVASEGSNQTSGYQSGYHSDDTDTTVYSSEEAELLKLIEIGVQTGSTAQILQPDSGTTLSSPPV
Settings: reported IC50 to VEGFR2; read-out: VEGFR2 IC50_μM; cited from earlier work
For COc1cc2c(Nc3ccc(Br)cc3F)ncnc2cc1OCCn1ccnn1 [compound 5329032], the pIC50 is given as 7.52.

System: any gene target
Settings: Table 2; lowest reported IC50 to any gene target; read-out: Min IC50_μM; cited from earlier work
For COc1cc(F)cc(N(CCNC(C)C)c2ccc3ncc(-c4cn[nH]c4)nc3c2)c1 [compound 134153940], the pIC50 is listed as 8.68. For COc1cc(OC)cc(N(CCN2CCCC2)c2ccc3ncc(-c4cnn(C)c4)nc3c2)c1 [compound 134156523], the pIC50 is given as 8.75. For CNC1CCN(CCCN(c2cc(OC)cc(OC)c2)c2ccc3ncc(-c4cnn(C)c4)nc3c2)C1 (stereo not shown) [compound 134140450], the pIC50 is listed as 8.65. In the case of COc1cc(OC)cc(N(CCNC(C)C)c2ccc3ncc(-c4cn[nH]c4)nc3c2)c1 [compound 134148952], the pIC50 is listed as 8.47. In the case of CCN(CC)CCN(c1cc(OC)cc(OC)c1)c1ccc2ncc(-c3cnn(C)c3)nc2c1 [compound 68208850], the pIC50 is listed as 8.52. For COc1cc(OC)cc(N(CCNCC2CC2)c2ccc3ncc(-c4cnn(C)c4)nc3c2)c1 [compound 68208778], the pIC50 is listed as 8.52. In the case of COc1cc(OC)cc(N(CCNC(C)C)c2ccc3ncc(-c4cnn(C)c4)nc3c2)c1 [compound 118014709], the pIC50 is listed as 8.64. In the case of COc1ccc(OC)c(N(CCNC(C)C)c2ccc3ncc(-c4cnn(C)c4)nc3c2)c1 [compound 54591211], the pIC50 is given as 6.82. In the case of COc1cc(OC)cc(N(C[C@@H]2CCCN2)c2ccc3ncc(-c4cnn(C)c4)nc3c2)c1 [compound 68208803], the pIC50 is listed as 8.50. For COc1cc(OC)cc(N(CCNC(C)C)c2ccc3ncc(-c4cnn(C)c4C)nc3c2)c1 [compound 68209154], the pIC50 is given as 8.33. For COc1cc(OC)cc(N(CCNCCO)c2ccc3ncc(-c4cnn(C)c4)nc3c2)c1 [compound 68209464], the pIC50 is given as 8.65. For CNCCN(c1cc(OC)cc(OC)c1)c1ccc2ncc(-c3cnn(CC(=O)NC)c3)nc2c1 [compound 68208748], the pIC50 is given as 8.59. For COc1cc(OC)c(C)c(N(CCCN2CCCC2)c2ccc3ncc(-c4cnn(C)c4)nc3c2)c1 [compound 134145340], the pIC50 is listed as 8.45. In the case of COc1cc(OC)cc(N(CCN2CCCCC2C)c2ccc3ncc(-c4cnn(C)c4)nc3c2)c1 (stereo not shown) [compound 134146514], the pIC50 is given as 8.60. In the case of COc1cc(OC)cc(N(CCN2CCCC2)c2ccc3ncc(-c4cn[nH]c4)nc3c2)c1 [compound 134153401], the pIC50 is listed as 8.61. In the case of COc1cc(OC)cc(N(CCCN2C[C@@H](C)O[C@@H](C)C2)c2ccc3ncc(-c4cnn(C)c4)nc3c2)c1 [compound 89447204], the pIC50 is given as 8.45. In the case of COc1cc(OC)cc(N(Cc2ccccc2Cl)c2ccc3ncc(-c4cnn(C)c4)nc3c2)c1 [compound 68208812], the pIC50 is listed as 7.21. In the case of COc1cc(OC)cc(N(CCNC(C)C)c2ccc3ncc(-c4c(C)nn(C)c4C)nc3c2)c1 [compound 134138098], the pIC50 is listed as 7.97. In the case of COc1cc(F)cc(N(CCCN2CCCC2)c2ccc3ncc(-c4cn[nH]c4)nc3c2)c1 [compound 134140310], the pIC50 is listed as 8.73. For COc1cc(OC)cc(N(CC#Cc2cc(C(N)=O)ccn2)c2ccc3ncc(-c4cnn(C)c4)nc3c2)c1 [compound 89447328], the pIC50 is listed as 8.61. In the case of COc1cc(OC)cc(N(Cc2ncccn2)c2ccc3ncc(-c4cnn(C)c4)nc3c2)c1 [compound 68208969], the pIC50 is listed as 8.09. In the case of COc1cc(OC)cc(N(CCN2CCCCC2)c2ccc3ncc(-c4cnn(C)c4)nc3c2)c1 [compound 68209029], the pIC50 is given as 8.65.

Same assay, conditions: lowest reported IC50 to any gene target; read-out: Min IC50_μM; cited from earlier work
For CCOC(=O)C1CCN(CCN(c2cc(OC)cc(OC)c2)c2ccc3ncc(-c4cnn(C)c4)nc3c2)CC1 [compound 68209310], the pIC50 is given as 8.47. In the case of COc1cc(OC)cc(N(CCN2CCC(C(C)(C)O)CC2)c2ccc3ncc(-c4cnn(C)c4)nc3c2)c1 [compound 68209085], the pIC50 is given as 8.41. For COc1cc(OC)cc(N(CC#Cc2cc(C)ccn2)c2ccc3ncc(-c4cnn(C)c4)nc3c2)c1 [compound 67466880], the pIC50 is given as 8.03. For COc1cc(OC)cc(N(CC#CC2(O)CCNCC2)c2ccc3ncc(-c4cnn(C)c4)nc3c2)c1 [compound 89447547], the pIC50 is listed as 8.15. In the case of COc1cc(OC)cc(N(CCCN2[C@H](C)CC[C@@H]2C)c2ccc3ncc(-c4cnn(C)c4)nc3c2)c1 [compound 89447423], the pIC50 is given as 8.49. For COc1cc(OC)cc(-c2cc3cnc(NCCCCCN4CCOCC4)cc3nc2NC(=O)NC(C)(C)C)c1 [compound 5330134], the pIC50 is given as 9.30. For CONC(=O)c1cc(Nc2ncnn3cc(-c4nnc(C(C)C)o4)c(C(C)C)c23)c(F)cc1F [compound 11442803], the pIC50 is listed as 9.00. For COc1cc(OC)cc(N(CCCc2cc(C)ccn2)c2ccc3ncc(-c4cnn(C)c4)nc3c2)c1 [compound 68208924], the pIC50 is given as 7.97. For COc1cc(OC)cc(N(CCN2[C@@H](C)CC[C@@H]2C)c2ccc3ncc(-c4cnn(C)c4)nc3c2)c1 [compound 89447247], the pIC50 is given as 8.42. For CNC[C@H](O)CN(c1cc(OC)cc(OC)c1)c1ccc2ncc(-c3cnn(C)c3)nc2c1 [compound 68209125], the pIC50 is given as 8.75. In the case of COc1cc(OC)cc(N(CCCN2CCCC2(C)C)c2ccc3ncc(-c4cnn(C)c4)nc3c2)c1 [compound 134151320], the pIC50 is listed as 8.72.

Same assay, conditions: next lowest IC50 value to any gene target; Table 3; read-out: Min IC50_μM; cited from earlier work
In the case of Oc1ccc(-c2cnn3cc(-c4ccc(OCCN5CCOCC5)cc4)cnc23)cc1O [compound 52944268], the pIC50 is listed as 9.00. For COc1cc2c(Nc3ccc(Cl)c(Cl)c3F)ncnc2cc1OC[C@@H]1CN2CCCC[C@@H]2C(=O)N1 [compound 57802634], the pIC50 is given as 7.30. For CNC(=O)c1ccccc1Sc1ccc2c(/C=C/c3ccccn3)n[nH]c2c1 [compound 6450551], the pIC50 is listed as 10.00.

Same assay, conditions: next lowest IC50 value to any gene target; read-out: Min IC50_μM; cited from earlier work
In the case of O=C(Nc1cccc(C(F)(F)F)c1)c1ccccc1NCc1ccncc1 [compound 6398883], the pIC50 is given as 7.74. For COc1cc2nccc(Oc3ccc4c(C(=O)NC5CC5)cccc4c3)c2cc1OC [compound 11441375], the pIC50 is given as 7.57. In the case of O=C(NC1CCCCC1)c1cc2c(-c3ccccc3)n[nH]c2s1 [compound 44406074], the pIC50 is given as 4.96. For COc1cc2nccc(Oc3ccc4c(C(N)=O)cccc4c3)c2cc1C(N)=O [compound 11211389], the pIC50 is listed as 6.41. For COC(=O)c1ccc2c(C(=Nc3ccc(N4CCC(CN5CCN(C)CC5)C4=O)cc3)c3ccccc3)c(O)[nH]c2c1 (stereo not shown) [compound 136299423], the pIC50 is listed as 7.35. For Nc1ncnc2snc(-c3ccc(NC(=O)Nc4cc(C(F)(F)F)ccc4F)cc3)c12 [compound 44414779], the pIC50 is listed as 7.66. In the case of COc1ccc(-c2ccc(NC(=O)Nc3cccc(C(F)(F)F)c3)cc2)c2c(N)noc12 [compound 11374110], the pIC50 is given as 7.80. In the case of CCNC(=O)c1cccc2cc(Oc3ccnc4cc(OC)c(OC)cc34)ccc12 [compound 11486459], the pIC50 is listed as 7.34. For COc1ccc(N(C)c2ncnc3occ(C)c23)cc1 [compound 44555430], the pIC50 is given as 7.91. For Nc1[nH]nc2nccc(-c3ccc(NC(=O)Nc4cccc(C(F)(F)F)c4)cc3)c12 [compound 11495270], the pIC50 is listed as 8.70. In the case of COc1cc2nccc(Oc3ccc(NC(=O)Nc4cc(C)on4)c(Cl)c3)c2cc1OC [compound 118737468], the pIC50 is given as 8.49. In the case of CNC(=O)c1cc(Oc2ccc(NC(=O)Nc3ccc(Cl)c(C(F)(F)F)c3)cc2)ccn1 [compound 216239], the pIC50 is listed as 9.70. In the case of Cc1cccc(NC(=O)Nc2ccc(-c3cncc4c3c(N)nn4C)cc2)c1 [compound 11588815], the pIC50 is listed as 8.70. For CCNC(=O)Nc1ccc(Oc2ncnc(N)c2/C=N/OC)cc1Cl [compound 16742063], the pIC50 is listed as 6.74. For O=C(NCc1ccccc1)c1cc2c(-c3ccccc3)n[nH]c2s1 [compound 11359538], the pIC50 is given as 5.70.
